Test results from patent US20240208972A1, “LRRK2 INHIBITORS AND USES THEREOF” (NEURON23, INC., priority 2022, published 2024).

Tests used:
[1] = Brain penetration (Kp,uu) in CD-1 mice, with plasma and brain tissue binding by equilibrium dialysis; assay type: in vivo; conditions: mouse, brain and plasma (unbound), male CD-1 mice, single IV bolus 1 mg/kg
Experimental: The compounds disclosed herein were tested on CD-1 mice for brain penetration (Kp, uu) according to the following procedures.
Nine male CD-1 mice were administered TEST COMPOUND by single intravenous bolus administration at 1 mg/kg. The vehicle used for IV study was 5% DMSO, 5% solutol, 20% PEG300 and 70% water. The detailed dosing and sampling regimens are described in the following tables.
1.0 mg of test compound was accurately weighed into a glass vial, and slowly added with 104 μL of DMSO and vortexed for 1 min. Then 104 μL of solutol was added and vortexed for 1 min. Then 415 μL of PEG300 was added and vortexed for 1 min. Then 1000 μL of water was added and vortexed for 1 min. Finally, 451 μL of water was added and vortexed for 1 min to get a clear solution.
The body weights were in the range from 28.81 to 31.25 g for males on the first dosing day. All animals received a single intravenous bolus administration of TEST COMPOUND from the tail vein.
Each blood collection (about 0.06 mL per time point) was performed from saphenous vein of each animal into pre-chilled commercial K2-EDTA tubes as anti-coagulant and placed on wet ice until centrifugation.
Plasma samples were then prepared by centrifuging the blood samples at approximately 4° C., 3200×g for 10 minutes. All plasma samples were then quickly frozen over dry ice and kept at −60° C. or lower until LC-MS/MS analysis.
Brain tissue was homogenized using homogenizing buffer (15 mM PBS (pH7.4): MeOH=2:1) at the ratio of 1:9 (1 g tissue with 9 mL buffer, the dilution ratio is 10). The tissue homogenate was kept at −60° C. or lower until LC-MS/MS analysis.
The concentrations of TEST COMPOUND in plasma and brain were determined by using an LC-MS/MS method.
The plasma and brain concentration of TEST COMPOUND in study animals was subjected to a non-compartmental pharmacokinetic analysis by using the Phoenix WinNonlin software program (version 6.3 or above, Pharsight). The linear/log trapezoidal rule was applied in obtaining the PK parameters.
Individual plasma and brain concentration values that were below the lower limit of quantitation (LLOQ) were excluded from the PK parameter calculation. The nominal dose levels and nominal sampling times were used in the calculation of all pharmacokinetic parameters.
Mouse Kp, uu=(% free in mouse brain*concentration in mouse brain)/(% free in mouse plasma*concentration in mouse plasma)
The dialysis apparatus was assembled according to the manufacturer's instruction. Each Cell was filled with 120 μL of spiked plasma sample and dialyzed against equal volume of dialysis buffer (PBS). The assay was performed in duplicate. The dialysis plates were sealed and incubated in an incubator at 37° C. with 5% CO2 and rotated at 100 rpm for 6 hours. At the end of incubation, the seals were removed and 50 μL of samples from both buffer and plasma chambers were transferred to a 96-well plate.
All calculations were carried out using Microsoft Excel. The concentrations of test compound and control compound in the buffer and plasma chambers were determined from peak area ratios (PAR) of analyte to internal standard. Protein binding (% unbound and % bound) and recovery (% recovery) of test and control compounds was calculated as follows:
• 1. Thawing of the frozen brain (stored at −80° C.) • Frozen brain tissue was thawed at room temperature in a bath. Only brain tissue was used that was thawed no more than once. • 2. Preparation of brain tissue homogenate • Brain tissue homogenate was prepared by diluting one quantity (g) of the whole brain tissue with three volumes (mL) of buffer (PBS, pH 7.4) and homogenizing the mixture using a tissue homogenizer. Brain tissue homogenate was frozen at −80° C. for later use/comparison. • 3. Preparation of working solutions • The working solutions of test compound and the control compound propranolol were prepared in dimethyl sulfoxide (DMSO) at the concentration of 200 μM. […]

[2] = target: T1, wt human LRRK2, catalytic site (Homo sapiens, UniProt Q5S007); assay: TR-FRET LanthaScreen Tb Kinase Activity Assay, LRRK2 kinase inhibition; assay type: biochemical; conditions: 2 nM wt human LRRK2, 400 nM peptide, 38 μM ATP
T1 construct: wt human LRRK2, catalytic site, catalytic site (ThermoFisher/USA); purchased ThermoFisher
T1 sequence (Q5S007 1879-2138 limits assumed): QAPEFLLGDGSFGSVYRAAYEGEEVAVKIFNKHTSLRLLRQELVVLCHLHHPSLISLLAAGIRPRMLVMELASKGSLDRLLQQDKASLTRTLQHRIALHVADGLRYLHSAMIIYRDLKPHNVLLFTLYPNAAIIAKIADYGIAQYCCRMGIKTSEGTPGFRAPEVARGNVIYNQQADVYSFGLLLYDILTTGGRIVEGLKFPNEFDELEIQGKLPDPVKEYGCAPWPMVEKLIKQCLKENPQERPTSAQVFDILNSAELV
Method in brief: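 TR-FRET LanthaScreen format: 2 nM wt human LRRK2 catalytic domain with 400 nM fluorescein-ERM (LRRKtide) and 38 μM ATP in Kinase Buffer A, after 15 min compound preincubation. Reaction 120 min at RT, then EDTA plus Tb-anti-pLRRKtide antibody for 60 min; emission ratios analysed per kit protocol.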

Structure (SMILES)	Kp uu [1]	IC50 [2] [nM]
Cc1n[nH]c2c1N=C(c1c(F)cccc1F)Nc1ccc(N3CCO[C@@H](C)C3)cc1-2 [Example 26, (S)-4-(5-(2,6-difluorophenyl)-3-methyl-1,6-dihydrobenzo[d]pyrazolo[3,4-f][1,3]diazepin-9-yl)-2-methylmorpholine]	0.2 to 0.4	2 to 100
Cc1n[nH]c2c1N=C(c1c(F)cccc1F)Nc1c-2cc(N2CCN(CC(F)(F)F)CC2)nc1C [Example 23, 5-(2,6-difluorophenyl)-3,7-dimethyl-9-(4-(2,2,2-trifluoroethyl)piperazin-1-yl)-1,6-dihydropyrazolo[4,3-d]pyrido[4,3-f][1,3]diazepine]	> 0.4	< 2
Fc1cccc(F)c1C1=Nc2c(C(F)F)n[nH]c2-c2cc(N3CCOCC3)ncc2N1 [Example 10, 4-[5-(difluoromethyl)-8-(2,6-difluorophenyl)-3,4,7,9,12-pentazatricyclo[8.4.0.02,6]tetradeca-1(10),2(6),4,7,11,13-hexaen-13-yl]morpholine]	< 0.2	< 2
Cc1n[nH]c2c1N=C(c1c(F)cccc1F)Nc1cnc(N3CCO[C@@H](C(F)(F)F)C3)cc1-2 [Example 55, (2R)-4-[8-(2,6-difluorophenyl)-5-methyl-3,4,7,9,12-pentazatricyclo[8.4.0.02,6]tetradeca-1(10),2(6),4,7,11,13-hexaen-13-yl]-2-(trifluoromethyl)morpholine]	< 0.2	< 2

Further lines, results first:

Kp uu [1]	IC50 [2] [nM]	Structure (SMILES)
0.2 to 0.4	< 2	Cc1n[nH]c2c1N=C(c1c(F)cccc1F)N1CCc3nc(N4CCOCC4)cc-2c31 [Example 42, 4-[8-(2,6-difluorophenyl)-5-methyl-3,4,7,9,13-pentazatetracyclo[7.6.1.02,6.012,16]hexadeca-1(16),2(6),4,7,12,14-hexaen-14-yl]morpholine]
> 0.4	< 2	Cc1n[nH]c2c1N=C(c1c(F)cccc1F)Nc1c(F)cc(N3CCOCC3)cc1-2 [Example 30, 4-(5-(2,6-difluorophenyl)-7-fluoro-3-methyl-1,6-dihydrobenzo[d]pyrazolo[3,4-f][1,3]diazepin-9-yl)morpholine]
0.2 to 0.4	2 to 100	CCc1n[nH]c2c1N=C(c1c(F)cccc1F)Nc1cnc(N3CCOCC3)cc1-2 [Example 31, 4-[8-(2,6-difluorophenyl)-5-ethyl-3,4,7,9,12-pentazatricyclo[8.4.0.02,6]tetradeca-1(10),2(6),4,7,11,13-hexaen-13-yl]morpholine]
0.2 to 0.4	< 2	[2H]C([2H])([2H])c1n[nH]c2c1N=C(c1c(F)cccc1F)Nc1cnc(N3CCOCC3)cc1-2 [Example 32, 4-[8-(2,6-difluorophenyl)-5-(trideuteriomethyl)-3,4,7,9,12-pentazatricyclo[8.4.0.02,6]tetradeca-1(10),2(6),4,7,11,13-hexaen-13-yl]morpholine]
